In data set [1] the test system is vector control MDCK cells. The experiment in a line: Intracellular accumulation of ASP+ in vector control MDCK cells. Type of data set: cell-based, canine. As to conditions: 120 min. How it is done:
(§1) Cells were incubated with 5-HT3 antagonists in the apical chamber in HBSS pH 6.0 and 5-HT3 antagonists with ASP^+ (25 μM) in the basolateral chamber in HBSS pH 7.4 and incubated at 37 °C for 120 min. To measure time-dependent transcellular transport, an aliquot of the incubation medium (100 μL) from the apical chamber (receiving chamber) was collected at 40, 60, 90, and 120 min and replaced with an equal volume of fresh buffer containing 5-HT3 antagonist or the positive control chemical at the original concentration. […] Cells were lysed with 1% Triton X-100. […] Experiments were performed in three individual Transwell inserts.

Data set [2] concerns human OCT2 and MATE1. The experiment in a line: Intracellular accumulation of ASP+ in OCT2/MATE1 double-transfected MDCK cells. As to conditions: 120 min. Type of data set: cell-based. How it is done:
as §1

The conditions of data set [3]: no reference given, cited from earlier work.
Another data set has as its system OCT2 and MATE1. In words: Inhibition of basolateral-to-apical transcellular transport of ASP+ in OCT2/MATE1 double-transfected MDCK cells (Transwell). The conditions noted are these: human, probe ASP+ (25 μM, basolateral chamber). Here is the method: (§2) Control and OCT2/MATE1-expressing MDCK cells were evaluated for protein expression of OCT2 and MATE1 using SDS-PAGE and western blotting with specific primary antibodies (OCT2, sc292622 1:500 and MATE1, sc133390 1:250, Santa Cruz Biotechnology, Santa Cruz, CA, USA), followed by an antirabbit HRP-conjugated secondary antibody (1:1000, Sigma Aldrich, St. Louis, MO, USA) and Super Signal Western Dura Extended Duration Substrate (Pierce Biotechnology, Rockford, IL, USA). Detection was performed with a FluorChem imager (ProteinSimple, Santa Clara, CA, USA). Both MDCK cell lines were seeded on 0.4 μm transwell inserts (VWR, Radnor, PA, USA) at a density of 2 × 10^5 cells/cm^2. Transport experiments were performed 3 to 5 days after seeding. The integrity of MDCK monolayers was verified by measuring transepithelial electrical resistance (TEER) >150 Ω*cm^2 using an epithelial voltohmmeter, EVOM^2 (World Precision Instruments, Sarasota, FL). Proper formation of tight junctions was also verified by measurement of passive permeability of lucifer yellow in the basolateral-to-apical (B-to-A) direction. Lucifer yellow (20 μM) was applied to the basolateral chamber for 1 h, and media were collected from the apical chamber.
(§3) After washing the cells once with Hank’s Buffered Saline Solution (HBSS) pH 7.4, transport studies were initiated after aspirating the wash buffer from both the apical and basal chambers. […] Cells were lysed with 1% Triton X-100. […] Intracellular fluorescence was normalized to total protein concentration of cell lysates from each transwell using the BCA assay. Experiments were performed in three individual Transwell inserts.

Data set [4] deals with human OCT2 and MATE1. Described as above. As to conditions: inhibitor 0.5–20 μM. Here is the method: as §2, §3
The next data set concerns the target T1, human OCT2 (Homo sapiens, UniProt O15244).
T1 construct: expressed in transfected cells; gift of Dr. Kathy Giacomini, UCSF
T1 sequence (O15244 1-555): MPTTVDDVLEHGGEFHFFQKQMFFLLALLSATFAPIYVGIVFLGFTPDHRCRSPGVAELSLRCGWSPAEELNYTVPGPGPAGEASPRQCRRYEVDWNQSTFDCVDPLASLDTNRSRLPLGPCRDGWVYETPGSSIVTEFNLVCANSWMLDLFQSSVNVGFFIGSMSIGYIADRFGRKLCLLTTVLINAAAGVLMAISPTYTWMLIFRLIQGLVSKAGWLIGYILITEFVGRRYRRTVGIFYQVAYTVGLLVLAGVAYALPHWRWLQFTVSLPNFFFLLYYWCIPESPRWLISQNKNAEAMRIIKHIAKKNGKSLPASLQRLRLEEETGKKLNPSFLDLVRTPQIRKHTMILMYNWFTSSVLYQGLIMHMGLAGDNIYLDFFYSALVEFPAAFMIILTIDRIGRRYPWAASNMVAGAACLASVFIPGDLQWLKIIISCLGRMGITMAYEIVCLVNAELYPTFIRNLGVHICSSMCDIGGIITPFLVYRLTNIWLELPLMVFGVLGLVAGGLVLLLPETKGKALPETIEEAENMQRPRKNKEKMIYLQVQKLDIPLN
The experiment in a line: Inhibition of ASP+ uptake in HEK293 cells overexpressing OCT2. Type of data set: cell-based. As to conditions: ASP+ 10 μM. How it is done:
(§4) After washing once with prewarmed Hank’s Buffered Saline Solution (HBSS), cells were preincubated for 30 min at 37 °C with various 5-HT3 antagonists for OCT2 cells or in a 30 mM NH4Cl solution in HBSS at pH 6.5 for MATE1 cells for intracellular acidification. Uptake into OCT2 cells was initiated through exposure to 10 μM of fluorescent substrate ASP^+ directly in the incubation media. Uptake into MATE1 cells was initiated by application of HBSS at pH 7.4 containing 5-HT3 antagonists and 10 μM of fluorescent substrate ASP^+. […] Media was removed and washed four times with ice-cold HBSS. Cells were lysed with 1% Triton X-100. […] Intracellular fluorescence was normalized to total protein concentration of cell lysates from each well using the bicinchoninic acid (BCA) assay (Pierce Biotechnology, Rockford, IL, USA). Experiments were repeated three separate times, with three to four replicates in each experiment.
(§5) GraphPad Prism v6 (GraphPad Software, La Jolla, CA, USA) was used for statistical analysis.

The target in a further data set is T2, MATE1 (Homo sapiens, UniProt Q96FL8).
T2 construct: expressed in transfected cells; gift of Dr. Kathy Giacomini, UCSF
T2 sequence (Q96FL8 1-570): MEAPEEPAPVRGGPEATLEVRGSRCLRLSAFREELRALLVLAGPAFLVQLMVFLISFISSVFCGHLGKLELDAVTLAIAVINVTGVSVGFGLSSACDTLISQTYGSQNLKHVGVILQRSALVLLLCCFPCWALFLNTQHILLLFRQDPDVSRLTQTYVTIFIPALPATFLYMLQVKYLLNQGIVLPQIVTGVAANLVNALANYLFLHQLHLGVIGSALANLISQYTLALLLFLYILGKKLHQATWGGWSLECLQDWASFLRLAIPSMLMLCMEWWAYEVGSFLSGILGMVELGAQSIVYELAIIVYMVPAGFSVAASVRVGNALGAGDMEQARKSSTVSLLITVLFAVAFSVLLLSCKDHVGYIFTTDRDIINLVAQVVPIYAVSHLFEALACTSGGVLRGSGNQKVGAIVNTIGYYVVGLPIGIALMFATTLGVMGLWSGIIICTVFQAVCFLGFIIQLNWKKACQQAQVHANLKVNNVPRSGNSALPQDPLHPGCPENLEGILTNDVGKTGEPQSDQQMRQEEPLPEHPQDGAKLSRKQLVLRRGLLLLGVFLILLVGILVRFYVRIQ
The experiment in a line: Inhibition of ASP+ uptake in HEK293 cells overexpressing MATE1. Type of data set: cell-based. The conditions noted are these: inhibitor 10 μM, HEK293-MATE1 (data not shown). Here is the method: as §4, §5

Substrate in data set [5]: CN(C)c1ccc(/C=C/c2cc[n+](C)cc2)cc1
The experiment in a line: Concentration-dependent uptake of ASP+ in OCT2-expressing HEK293 cells. In kind it is cell-based, human. As to conditions: other: OCT2-expressing HEK293, 0–100 μM, 1 min; 37.0 °C. How it is done:
Figure 2 Time and Concentration-Dependent Accumulation of ASP^+ in HEK293 Cells Overexpressing OCT2 or MATE1. HEK cells expressing empty vector (EV), OCT2, or MATE1 were incubated for different time periods (0.5–20 min, 10 μM ASP^+, 37 °C) to evaluate time-dependent uptake (A) or with increasing concentrations of ASP^+ (0–100 μM, 1 min 37 °C) for concentration-dependent uptake (B) on a shaker. Specific transport uptake is shown in dashed lines. Intracellular fluorescence was quantified and normalized to protein concentration. Data are presented as mean ± SE (n = 3).
OCT2- and MATE1-overexpressing HEK293 cells were seeded in clear poly-^D-lysine-coated 24-well plates (Fisher Scientific, Hanover Park, IL, USA) and grown for 24 h until approximately 90% confluent. […]
GraphPad Prism v6 (GraphPad Software, La Jolla, CA, USA) was used for statistical analysis. Km and Vmax were calculated using nonlinear regression (Michaelis–Menten enzyme kinetics equation, (Y = Vmax × X/(Km + X), fit for least squares). Data with two variables were analyzed using a two-way ANOVA followed by a one-way ANOVA and/or Dunnett’s post-hoc test for multiple comparisons. IC50 values were calculated via a nonlinear regression to fit least squares. Differences were considered statistically significant at p < 0.05.

“Also recorded” adds a separate entry of the source.

Take `Cc1nccn1CC1CCc2c(c3ccccc3n2C)C1=O` (centres unmarked) [Ondansetron]: in data set [1] (high concentrations of inhibitor), the “decrease in accumulation of ASP+ in control cells” value worked out at 40%. Also, the “increase in intracellular ASP+ accumulation” value in the data set on human OCT2 and MATE1 [2] (inhibitor 0.5 and 2.5 μM) came out at 1.3 fold. For the same molecule, the “effect on intracellular ASP+ accumulation” value with human OCT2 and MATE1 [2] (inhibitor 0.5–20 μM, ASP+ 25 μM) was “at concentrations of 0.5 and 2.5 μM caused significant intracellular accumulation of ASP^+; also recorded: no difference compared to vehicle at higher concentrations (10 and 20 μM)”. The half-life in data set [3] was < 6 h. For the same molecule, the “metabolized by cytochrome P450 enzymes in the liver” value in data set [3] (range for the named drugs together) is listed as 48–95%. Besides, the inhibition at 120 min, 20 μM in the data set on OCT2 and MATE1 came out at 36%. Also, the “inhibition of basolateral-to-apical transcellular transport of ASP+, up to” value in the data set on human OCT2 and MATE1 [4] was “up to 64%”. The “effect on B-to-A transport of ASP+” value with human OCT2 and MATE1 [4] (40–120 min, ASP+ 25 μM) is listed as “inhibited the B-to-A transport of ASP^+ in a concentration-dependent manner; also recorded: inhibited the basolateral-to-apical ASP^+ secretion at all concentrations tested”.

Take `Cc1cc2c(s1)Nc1ccccc1N=C2N1CCN(C)CC1` [olanzapine]: in data set [1] (cimetidine 5 and 50 μM, pyrimethamine 1 μM, olanzapine 20 μM), the “effect on intracellular accumulation of ASP+ in control cells” value was “modest decrease in ASP^+ accumulation”. Further, the “decrease in intracellular accumulation of ASP+” value with human OCT2 and MATE1 [2] (inhibitor 20 μM) amounted to 51%. For the same molecule, the “effect on ASP+ uptake in OCT2-expressing HEK293 cells” value on human OCT2 is “inhibited OCT2 activity across a range of concentrations”. The “inhibition of MATE1 activity” value against MATE1 is “None of these drugs inhibited MATE1 activity”.

B1: human OCT2 (Homo sapiens) (protein)
chain: T1 sequence (O15244 1-555)
notes: expressed in transfected cells; gift of Dr. Kathy Giacomini, UCSF
Consider B1, for which, in data set [5], the Km came to 2.9 µM and the Vmax is 8.1 nmol/mg/min.

Broadly, the half-life is how long it takes for the measured level to halve. What is called inhibition is the change of the read-out against control, counted positive when it falls. By Km is commonly meant the substrate concentration at which the rate is half of its maximum. A word on the Vmax: it is the rate approached at saturating substrate.

The record behind these values is PMC8234231, “In Vitro Inhibition of Renal OCT2 and MATE1 Secretion by Antiemetic Drugs” (International Journal of Molecular Sciences, 2021).
